Assay results taken from US6670353B2, “Oxime-group containing oestrone sulphatase inhibitors” (Sterix Limited, priority 1997, dated 2003).

How the values were obtained:
[1] = biological target: T1, Steroid sulphatase (Steryl Sulphatase EC 3.1.6.2) (Homo sapiens, UniProt P08842); test: Inhibition of steroid sulphatase activity in intact MCF-7 cells; format: cell-based; settings: MCF7, read-out: % INHIBITION (mean ± S.D., n = 3) MCF-7 cells
T1 construct: endogenous in cells; host or cells: MCF-7 human breast cancer cells
T1 sequence (P08842 22-583): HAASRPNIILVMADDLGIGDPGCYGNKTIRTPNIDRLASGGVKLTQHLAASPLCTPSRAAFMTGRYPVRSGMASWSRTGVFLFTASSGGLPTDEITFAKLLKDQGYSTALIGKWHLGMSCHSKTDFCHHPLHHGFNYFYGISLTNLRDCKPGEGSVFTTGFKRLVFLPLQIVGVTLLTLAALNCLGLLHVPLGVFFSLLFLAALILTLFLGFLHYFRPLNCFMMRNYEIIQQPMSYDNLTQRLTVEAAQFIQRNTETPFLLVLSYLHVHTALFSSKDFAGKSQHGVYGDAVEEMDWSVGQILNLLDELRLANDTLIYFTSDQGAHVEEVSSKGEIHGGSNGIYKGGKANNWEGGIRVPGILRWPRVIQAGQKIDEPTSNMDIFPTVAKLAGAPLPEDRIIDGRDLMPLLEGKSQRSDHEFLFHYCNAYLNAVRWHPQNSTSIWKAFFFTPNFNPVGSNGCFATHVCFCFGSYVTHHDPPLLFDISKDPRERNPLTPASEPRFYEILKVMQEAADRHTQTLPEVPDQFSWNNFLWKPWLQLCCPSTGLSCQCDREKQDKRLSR
Procedure: (§1) In the examples reference is made to steroid sulphatase inhibition. This is determined according to the teachings of PCT/GB92/01587 wherein the ability of compounds to inhibit oestrone sulphatase activity is assessed using either intact MCF-7 breast cancer cells or placental microsomes. For ease of reference, those teachings are repeated here as Example 1.
Steroid sulphatase (Steroid sulphatase is defined as: Steryl Sulphatase EC 3.1.6.2.) activity was measured in vitro using intact MCF-7 human breast cancer cells. This hormone dependent cell line is widely used to study the control of human breast cancer cell growth. […] Cells were maintained in Minimal Essential Medium (MEM) (Flow Laboratories, Irvine, Scotland) containing 20 mM HEPES, 5% foetal bovine serum, 2 mM glutamine, non-essential amino acids and 0.075% sodium bicarbonate. Up to 30 replicate 25 cm^2 tissue culture flasks were seeded with approximately 1×10^5 cells/flask using the above medium. Cells were grown to 80% confluency and medium was changed every third day.
Intact monolayers of MCF-7 cells in triplicate 25 cm^2 tissue culture flasks were washed with Earle's Balanced Salt Solution (EBSS from ICN Flow, High Wycombe, U.K.) and incubated for 3-4 hours at 37° C. with 5 pmol (7×10^5 dpm) [6,7-^3H]oestrone-3-sulphate (specific activity 60 Ci/mmol from New England Nuclear, Boston, Mass., U.S.A.) in serum-free MEM (2.5 ml) together with oestrone-3-sulphamate (11 concentrations: 0; 1 fM; 0.01 pM; 0.1 pM; 1 pM; 0.01 nM; 0.1 nM; 1 nM; 0.01 mM; 0.1 mM; 1 mM). […] A portion (2 ml) of the organic phase was removed, evaporated and the ^3H and ^14C content of the residue determined by scintillation spectrometry. The mass of oestrone-3-sulphate hydrolysed was calculated from the ^3H counts obtained (corrected for the volumes of the medium and organic phase used, and for recovery of [^14C]oestrone added) and the specific activity of the substrate. […] The number of cell nuclei per flask was determined using a Coulter Counter after treating the cell monolayers with Zaponin. […]

[2] = biological target: T2, Steroid sulphatase (oestrone sulphatase) (Homo sapiens, UniProt P08842); test: Inhibition of steroid sulphatase activity in placental microsomes; format: biochemical; settings: read-out: % INHIBITION (mean ± S.D., n = 3) PLACENTAL MICROSOMES
T2 construct: Sulphatase-positive human placenta from normal term pregnancies; from tissue; host or cells: human term placenta (2000 g supernatant / microsomes)
T2 sequence (P08842 22-583): T1 sequence (P08842 22-583)
Procedure: as §1
Sulphatase-positive human placenta from normal term pregnancies (Obstetric Ward, St. Mary's Hospital, London) were thoroughly minced with scissors and washed once with cold phosphate buffer (pH 7.4, 50 mM) then re-suspended in cold phosphate buffer (5 ml/g tissue). Homogenisation was accomplished with an Ultra-Turrax homogeniser, using three 10 second bursts separated by 2 minute cooling periods in ice. Nuclei and cell debris were removed by centrifuging (4° C.) at 2000 g for 30 minutes and portions (2 ml) of the supernatant were stored at −20° C. The protein concentration of the supernatants was determined by the method of Bradford (Anal. Biochem., 72, 248-254 (1976)).
Incubations (1 ml) were carried out using a protein concentration of […], substrate concentration of […] [6,7-^3H]oestrone-3-sulphate (specific activity 60 Ci/mmol from New England Nuclear, Boston, Mass., U.S.A.) and an incubation time of 20 minutes at 37° C. Eight concentrations of the compounds to be tested may be employed: 0 (i.e. control); 0.05 mM; 0.1 mM; 0.2 mM; 0.4 mM; 0.6 mM; 0.8 mM; 1.0 mM. After incubation each sample was cooled and the medium (1 ml) was pipetted into separate tubes containing [^14C]oestrone (7×10^3 dpm) (specific activity 97 Ci/mmol from Amersham International Radiochemical Centre, Amersham, U.K.). The mixture was shaken thoroughly for 30 seconds with toluene (5 ml). […] A portion (2 ml) of the organic phase was removed, evaporated and the ^3H and ^14C content of the residue determined by scintillation spectrometry. The mass of oestrone-3-sulphate hydrolysed was calculated from the ^3H counts obtained (corrected for the volumes of the medium and organic phase used, and for recovery of [^14C]oestrone added) and the specific activity of the substrate.

Rat Liver Sulphatase = biological target: T3, Rat Liver Sulphatase (Rattus norvegicus, UniProt P15589); test: In vivo inhibition (rat liver sulphatase); settings: 2 mg/kg/d×5 ol, ORAL DOSE
T3 construct: from tissue; host or cells: rat liver after oral dosing
T3 sequence (P15589 20-577): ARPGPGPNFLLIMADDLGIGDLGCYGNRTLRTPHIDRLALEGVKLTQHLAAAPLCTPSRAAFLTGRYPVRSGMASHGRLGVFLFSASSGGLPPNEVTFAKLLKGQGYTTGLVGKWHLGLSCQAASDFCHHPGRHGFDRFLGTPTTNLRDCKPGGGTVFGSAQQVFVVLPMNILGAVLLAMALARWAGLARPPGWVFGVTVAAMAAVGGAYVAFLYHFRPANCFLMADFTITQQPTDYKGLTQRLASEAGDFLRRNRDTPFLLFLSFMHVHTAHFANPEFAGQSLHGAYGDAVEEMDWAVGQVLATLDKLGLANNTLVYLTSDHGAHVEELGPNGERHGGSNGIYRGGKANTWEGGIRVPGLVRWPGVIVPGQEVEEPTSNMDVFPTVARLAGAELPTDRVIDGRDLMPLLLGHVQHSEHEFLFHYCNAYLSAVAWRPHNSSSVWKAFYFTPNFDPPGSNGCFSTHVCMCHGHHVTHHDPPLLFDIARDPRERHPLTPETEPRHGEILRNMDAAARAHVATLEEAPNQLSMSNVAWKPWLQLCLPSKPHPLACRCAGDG
Procedure: In Vivo Inhibition (Rat Liver Sulphatase)
99.2±0.42%. @ 2 mg/kg/d×5 ol, ORAL DOSE.

uterine growth = test: Measurement of estrogenic activity (uterine weight); format: in vivo; settings: rats, oral, such as 0.1 mg/Kg/day for five days; uterine weight/whole body weight×100
Procedure: Compounds according to the present invention such as Compound 2 (such as at levels of 0.1 mg/Kg/day for five days) are administered orally to rats with another group of animals receiving vehicle only (propylene glycol). At the end of the study uteri are obtained and weighed with the results being expressed as uterine weight/whole body weight×100.

[3] = cited from earlier work
[4] = biological target: T1, Steroid sulphatase (Steryl Sulphatase EC 3.1.6.2); settings: 0.1 μM; cited from earlier work
rat liver E1-STS = biological target: T4, rat liver E1-STS (Rattus norvegicus, UniProt P15589); settings: administered either orally or subcutaneously; cited from earlier work
T4 construct: host or cells: rat liver (in vivo)
T4 sequence (P15589 20-577): T3 sequence (P15589 20-577)

rat liver DHA-STS = biological target: T5, rat liver DHA-STS (Rattus norvegicus, UniProt P15589); settings: administered either orally or subcutaneously; cited from earlier work
T5 construct: host or cells: rat liver (in vivo)
T5 sequence (P15589 20-577): T3 sequence (P15589 20-577)

memory = settings: rats; cited from earlier work
E1-STS enzyme = biological target: T6, E1-STS enzyme (Homo sapiens, UniProt P08842); settings: cited from earlier work
T6 sequence (P08842 22-583): T1 sequence (P08842 22-583)

C[C@]12CCC3c4ccc(OS(N)(=O)=O)cc4CCC3C1CCC2=NO (stereo partly shown) [Compound 2, Oestrone Oxime-3-O-sulphamate]
inhibition at 0.1 µM ([1]; inhibitor concentration 0.1 μM): 96 ± 1.8% | inhibition at 1 µM ([1]; inhibitor concentration 1 μM): 98 ± 0.6% | inhibition at 10 µM ([1]; inhibitor concentration 10 μM): 99 ± 0.2% | inhibition at 0.0001 µM ([2]; inhibitor concentration 0.1 nM): 2.9 ± 1.1% | inhibition at 0.001 µM ([2]; inhibitor concentration 1 nM): 8 ± 3.3% | inhibition at 0.01 µM ([2]; inhibitor concentration 10 nM): 19.3 ± 2.4% | inhibition at 0.1 µM ([2]; inhibitor concentration 0.1 μM): 52.3 ± 0.1% | inhibition at 1 µM ([2]; inhibitor concentration 1 μM): 89.8 ± 0.2% | inhibition at 10 µM ([2]; inhibitor concentration 10 μM): 98.7 ± 0.1% | In vivo inhibition (rat liver sulphatase) (Rat Liver Sulphatase): 99.2±0.42% | Estrogenic activity: effect on uterine growth (uterine growth): has an effect on uterine growth

C[C@]12CC[C@@H]3c4ccc(OS(=O)(=O)O)cc4CC[C@H]3[C@@H]1CCC2=O [Compound E1S, oestrone sulphate]
half-life in blood [3]: 10 to 12 h

CC12CCC3c4ccc(OS(N)(=O)=O)cc4CCC3C1CCC2=O (stereo not shown) [EMATE, oestrone-3-sulphamate]
inhibition of E1-STS activity in intact MCF-7 cells [4]: more than 99% | inhibition of rat liver E1-STS activity (rat liver E1-STS): 99% | inhibition of rat liver DHA-STS activity (rat liver DHA-STS): 99% | memory enhancing effect (memory): memory enhancing effect | mode of inhibition of the E1-STS enzyme (E1-STS enzyme): time- and concentration-dependent manner

oestrone-3-N-sulphamate
mode of inhibition of the E1-STS enzyme (E1-STS enzyme): weaker non-time-dependent inactivators

oestrone-3-S-sulphamate
mode of inhibition of the E1-STS enzyme (E1-STS enzyme): weaker non-time-dependent inactivators
